# Source: patent US7563862B2, “Neural regeneration peptides and methods for their use in treatment of brain damage” (Neuren Pharmaceuticals Limited, priority 2001, dated 2009)
# Ends that are not written are not given here.
# Legend:
# [1] = tested on: un-injured cerebellar microexplants; assay: proliferation induction without injury, cerebellar microexplants; assay type: cell-based, rat
# Experimental: FIG. 17 depicts results of proliferation induction without injury using NRP-2 segment KG (SEQ ID NO: 18) and rat NRP-1 (SEQ ID NO: 2). Peptides were administered 24hrs after start of cultivation to decrease interference in the assay due to initial neuronal survival or adherence effects. The cultures were fixed after 3 days in vitro. There was neuronal proliferation seen at 300 μM of NRP-2 segment KG (SEQ ID NO: 18).
# Within the applied proliferation assay rat NRP-1 (SEQ ID NO:2) and NRP-2KS (SEQ ID NO:23) were tested for neuronal proliferation inducing activity (see FIG. 19). In order to discriminate proliferation from increased survival and cellular adhesion properties, NRP-2 KS (SEQ ID NO:23) was administered 24 hrs after the start of cultivation. Rat NRP-1(SEQ ID NO:2) had specific effects on neuronal proliferation, (see FIGS. 7, 9 and 10). Neuronal proliferation induced by NRP-2KS (SEQ ID NO:23) occurred within a range of about 0.3-30 nM using un-injured cerebellar microexplants (verified by counting cells displaying neurite outgrowth).
# cerebellar microexplants = assay: cerebellar microexplant proliferation assay under injury (BrdU-positive nuclei); assay type: cell-based, rat
# Experimental: Using the toxins described above, cerebellar explants were exposed for 24 hours, at the beginning of culturing to dilutions of NRP and 0.1 μM BrdU. Subsequently, 80% of the medium was changed without addition of new toxins and NRPs. The cerebellar cultures were fixed as described above after 3 days in vitro. The detection of the incorporated BrdU level was performed as described previously. Under these conditions, over 99% of the cells in the cerebellar population were neurons. Therefore any increase in cell number after NRP administration was most likely due to neuronal cell proliferation.
# For statistical analysis of proliferation four fields (each field having an area of 0.65 mm^2) of each fixed cerebellar culture displaying highest density of BrdU-positive nuclei were chosen, and BrdU-positive nuclei were counted. Statistical significance was measured by Student's t-test.
# Laminated cerebellar cortex was extracted from P3/4, P7/8 rat pups and triturated through gauze having a 125 μm pore size to obtain uniformly sized microexplants. After centrifugation for 3 minutes at 61 g and the pellet was resuspended in StartV medium (Biochrom) and the suspension seeded on poly-D-lysine coated coverslips in 6-well plates and incubated for 3 hrs to allow adherence, before 1 ml StartV per well was added. As described previously, glutamate/3-NP and NRP were also added. The explants are cultivated at 34° C. at 5% CO2 and 100% humidity for 48-72 hrs. BrdU was administered at start of cultivation for proliferation rate measurements and cells are counted per microscopic field after 48-72 hrs.
# neural stem cells = assay: neural stem cell differentiation assay, neuronal differentiation and axonal outgrowth; assay type: cell-based, mouse
# Experimental: Neural stem cells were derived from E15 C3H mice forebrain and cultured as neurospheres in the presence of 20 ng/ml EGF and 10 ng/ml bFGF as described in Gritti et al. (2001). Briefly, timed pregnant mice were sacrificed and the embryos removed. Under sterile conditions the brains were removed and the forebrains dissected. The tissue was dissociated by trituration and pelleted by 75 g centrifugation for 10 minutes and the cells seeded in non-coated tissue culture flasks in NSA medium with growth factors. For passaging neurospheres were triturated and seeded as single cells.
# Upon reaching a sufficient size, neurospheres were dissociated by trituration and plated at a density of 200,000 cells per well on laminin-coated 13 mm diameter coverslips that had been placed in Nunc 24 well plates. The plating medium was a 1:1 mixture of DMEM/F12 supplemented with N2 and Neurobasal supplemented with B27 and 2 mM glutamine. To enhance survival after plating the medium contained 2 ng/ml bFGF. After 24 h the medium was replaced with a neuronal differentiation-promoting medium (1:3 mixture of DMEM/F12 supplemented with N2 and Neurobasal supplemented with B27 and 2 mM glutamine) and except for the controls the test compound or IGF-1 was added simultaneously. The medium with fresh compound was exchanged every other day. Seven days after plating the differentiating cells were incubated for 20 minutes in differentiation medium containing 100 ng/ml Syto21 to label the nuclei of viable cells. Subsequently, they were fixed with 4% paraformaldehyde and immunostained with a mouse anti-βIII tubulin antibody and a goat anti-mouse Cy3-coupled secondary antibody.
# After staining the coverslips were removed from the tissue culture plate and mounted on […], using Immunofluore fluorescent mounting medium. To analyse the percentage of neurons of total cells, with a Zeiss axiophot microscope, equipped with Axoivision software, at 20× magnification images of two random fields per well were taken in the red (tubulin stained neurons) and green (Syto21 stained nuclei) fluorescent channel. Neurons and nuclei per field were counted and the neuronal percentage of total cell number determined.
# [2] = tested on: OTCs of rat embryonic forebrain; assay: embryonic forebrain OTC migration assay (medial ganglionic eminence to cortical anlage); assay type: cell-based
# Experimental: OTCs of rat embryonic forebrain were prepared as described. Briefly, pregnant rats at E17 gestation were sacrificed, the fetuses rapidly removed. Coronal slices of the forebrain were cut at 400 μm thickness and placed onto millicell PICM ORG50 membranes (Millipore) in 3 cm Petri dishes containing 1 ml of DMEMI/F12, 6.5 mg/ml glucose, 0.1 mM glutamine and 10% FCS for 34 hrs. Afterwards the medium was exchanged to 1 ml Neurobasal/B27, 6.5 mg/ml glucose, 0.1 mM glutamine, to which 10 μl PBS, NRP, or SDF-1 were added for the indicated concentrations and a small DiI (1,1′-dioctodecycyl-3,3,3′3-tetramethylindocarbocyanine) crystal of uniform size was placed in the medial ganglionic eminence (n=10-15) under a stereomicroscope. After 24 hrs cultivation the total number or migrated neurons dispersed in the ganglionic eminence and cortex were counted under an inverted fluorescent microscope.
# [3] = tested on: human olfactory ensheating glial (OEG) cells; assay: proliferation of olfactory ensheating glial (OEG) cells; assay type: cell-based; conditions: over 72 hours
# Experimental: To determine whether NRPs might be useful for remyelinating neural tissues, we carried out studies using human olfactory ensheating glial (OEG) cells. OEG cells are being evaluated as a source population of cells for repopulating damaged neural tissue, such as that of the spinal cord. OEG cells were obtained from scrapings of human nasal mucosa using methods that are known in the art. Cells were grown in medium under control conditions and in the presence of NRP-7 SW (SEQ ID NO:24).
substance,measurement,setting,value
"NRP-1: rat 16 amino acid neural regeneration peptide purified from hippocampal OTC supernatant, Tyr Asp Pro Glu ... Cys His-NH2 (YDPEAASAPGSGNPCH-NH2)",concentration of greatest effect on neuronal proliferation,[1],3 nM
same,up regulation of neuronal cell proliferation,[1]; 3 nM,81.2%
"SEPEARRAPGRKGGVVCASLAADW-NH2 [NRP-7 segment SW, 24-mer form of mouse NRP-7]",up regulation of the proliferation rate observed for injured cerebellar microexplants,cerebellar microexplants; 0.1 pM,252.6%
same,up regulation of the proliferation rate observed for injured cerebellar microexplants,cerebellar microexplants; 100 pM,123.7%
same,enhancement of the proliferation rate,cerebellar microexplants; neurons injured using 3-NP/glutamate,more than 200%
same,maximum increase in beta-III-tubulin-positive neurons,"neural stem cells; 10 pM, 7 days differentiation",2 fold
same,axonal outgrowth-promoting activity,neural stem cells; 7 days differentiation,maximum activity for an increase in axonal length growth lies in the upper nanomolar range
same,increase in number of migrating neuronal precursor cells,[2],5 fold
same,optimum dose,[2],1 nM
same,rate of growth of OEG cells,[3],about 50%
"KDPEARRAPGSLHPCLAAS-NH2 [NRP-2 segment KS, 19-mer fragment of NRP-2]","increased neuronal cell proliferation, greater than vehicle-treated controls",[1]; 300 μM,117.5%
same,concentration range of induced neuronal proliferation,[1]; peptide 24 hrs after start of cultivation,0.3 to 30 nM
same,maximum increase in beta-III-tubulin-positive neurons,"neural stem cells; 1 0nM, 7 days differentiation",2 fold
same,proliferation rate during differentiation of NSC,neural stem cells; together with BrdU for 24 hrs,an increase in the proliferation rate
